These results are taken from patent US20080039455A1, “PYRAZOLOPYRIMIDINES AND SALTS THEREOF, PHARMACEUTICAL COMPOSITIONS COMPRISING SAME, METHODS OF PREPARING SAME AND USES OF SAME” (priority 2006, published 2008).

This assay addresses T1, human recombinant ALK1 (GST fused to ALK1 intracellular domain [His142-Gln503]) (Homo sapiens, UniProt P37023).
T1 construct: GST fused to ALK1 intracellular domain [His142-Gln503]; made in house
T1 sequence (P37023 142-503): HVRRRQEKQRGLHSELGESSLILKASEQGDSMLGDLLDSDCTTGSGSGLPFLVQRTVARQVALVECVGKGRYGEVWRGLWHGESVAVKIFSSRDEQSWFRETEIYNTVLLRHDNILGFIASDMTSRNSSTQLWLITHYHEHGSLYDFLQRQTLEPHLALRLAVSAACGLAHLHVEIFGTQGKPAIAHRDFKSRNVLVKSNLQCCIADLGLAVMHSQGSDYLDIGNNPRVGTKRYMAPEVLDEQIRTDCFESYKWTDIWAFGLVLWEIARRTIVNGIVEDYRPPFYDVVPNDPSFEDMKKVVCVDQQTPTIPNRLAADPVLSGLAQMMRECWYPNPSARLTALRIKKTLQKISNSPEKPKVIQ
Briefly: ALK1-Kinase Flashplate-Assay. To be noted: 0.5 μM ATP, biotinylated α-casein substrate; read-out: Assay 1 (ALK1-Kinase Flashplate-Assay IC50 class). It counts as biochemical. An excerpt: Biological Assay 1: ALK1-Kinase Flashplate-Assay
ALK1 phosphorylates serine/threonine residues of the biotinylated substrate bovine α-casein in the presence of [γ-^33P]ATP. Detection of the radiolabeled phosphorylated product is achieved by binding to streptavidine-coated Flashplates. The biotin moieties of biotinylated casein bind with high affinity to the streptavidine. The radiolabeled biotinylated casein produced by the ALK1 kinase reaction is able to generate a […] signal when strepatavidine-mediated binding occurs to the scintillant-containing surface of the Flashplates due to the close proximity of the radiolabel and the scintillant. […] The signals obtained are therefore indicative of the ALK1 kinase activity. Measurement is performed in a Perkin-Elmer TopCount or Perkin-Elmer ViewLux instrument.
Enzyme: Purified human recombinant ALK1 (GST fused to ALK1 intracellular domain [His142-Gln503]) produced in-house, aliquots stored at −80° C.;
Diluted enzyme working solution: 2.5 ng/μl ALK1 (in assay buffer) freshly prepared and chilled on ice until use.
Substrate: biotinylated bovine α-casein. Unbiotinylated casein obtained from Sigma was biotinylated by standard procedures using N-hydroxysuccinimide (NHS) ester of biotin.
Substrate working solution: 0.83 μM ATP, 1.67 μM biotinylated a-casein, 7.4 nCi [γ-^33P]ATP/μl in assay buffer
Assay plates: 384-well plates, small volume, white, Greiner (# 784075)
Flashplates: Streptavidin-coated Flashplates, Perkin Elmer (384-well # SPM410A)
Assay buffer: 50 mM Tris/HCl pH 8.0, 1 mM MnCl2, 1 mM DTT, 0.01% NP40, 0.5× Complete EDTA-free
Stop solution: 33.3 μM ATP, 33.3 mM EDTA, 0.07% Triton X-100 in PBS
Saturating buffer for Flashplates: 100 μM ATP, 0.2% Triton X-100 in PBS
Sealing tape: Greiner (# 676080)
Protocol for small volume 5 μl assay (all steps are performed at 20° C., pipetted with CyBi-Well and Multidrop Micro): • 1. 50 nl or 250 nl compound in 100% DMSO • 2. addition of 3 μl substrate working solution with CyBi-Well pipettor • 3. addition of 2 μl enzyme working solution with Multidrop Micro incubation for 60 min at room temperature • 4. addition of 15 μl Stop solution with CyBi-Well pipettor • 5. transfer of 18 μl assay mixture to Flashplates** with CyBi-Well pipettor incubation for at least 3 h at room temperature or over night at 4° C. to allow binding to the streptavidine-coated Flashplates • 6. washing the Flashplates 3 times with 50 μl PBS without Ca++ and Mg++ • 7. sealing with sealing tape • 8. Measurement in Topcount (60 sec/well) **Saturation of Flashplates: The Flashplates are preincubated for at least 1 hour with 50 μl saturating buffer. Remove 18 μl from the 50 μl and transfer 18 μl of the assay mixture to the Flashplate.
Final concentrations, calculated for 5 μl reaction volume: ALK1 5 ng/well; 1 μM biotinylated α-casein; 0.5 μM ATP; 22 nCi/well [γ-^33P]ATP; 1 mM MnCl2; 1 mM DTT; 50 mM Tris-HCl; pH 8.0; 0.01% NP40; 0.5× Complete EDTA-free; 1% or 5% DMSO.
The data were normalised (enzyme reaction without inhibitor=0% inhibition, enzyme reaction in the presence of 10 mM EDTA=100% inhibition) and IC50 values were calculated by a 4 parameter fit using an in-house software.
Usually IC50 stands for the concentration that inhibits the measured activity by half. As to `COc1cc(Nc2ccn3ncc(-c4cccc(C(N)=O)c4)c3n2)cc(OC)c1OC` [Example 176, 3-[5-(3,4,5-Trimethoxy-phenylamino)-pyrazolo[1,5-a]pyrimidin-3-yl]-benzamide], the IC50 lay in the range of 1000 to 10000 nM.

On to `Fc1cccc(-c2cnn3ccc(NCc4cccnc4)nc23)c1` [Example 405, [3-(3-Fluoro-phenyl)-pyrazolo[1,5-a]pyrimidin-5-yl]-pyridin-3-ylmethyl-amine], for which the 50% inhibitory concentration (IC50) lay within 1000 to 10000 nM.

As for `OCCNc1ccn2ncc(-c3ccc(O)cc3)c2n1` [Example 74, 4-[5-(2-Hydroxy-ethylamino)-pyrazolo[1,5-a]pyrimidin-3-yl]-phenol], the IC50 is 1000 to 10000 nM.

Take `COc1cc(-c2cnn3ccc(Nc4cccc(Cl)c4)nc23)cc(OC)c1OC` [Example 306, (3-Chloro-phenyl)-[3-(3,4,5-trimethoxy-phenyl)-pyrazolo[1,5-a]pyrimidin-5-yl]-amine]: the half-maximal inhibitory concentration (IC50) was below 1000 nM.

Consider `OCc1cccc(-c2cnn3ccc(Nc4cccc(Cl)c4)nc23)c1` [Example 312, {3-[5-(3-Chloro-phenylamino)-pyrazolo[1,5-a]pyrimidin-3-yl]-phenyl}-methanol], for which the half-maximal inhibitory concentration (IC50) lay in the range of 1000 to 10000 nM.

As to `COc1cncc(-c2cnn3ccc(Nc4ccc(O)cc4)nc23)c1` [Example 87, 4-[3-(5-Methoxy-pyridin-3-yl)-pyrazolo[1,5-a]pyrimidin-5-ylamino]-phenol], the 50% inhibitory concentration (IC50) is below 1000 nM.

In the case of `COc1cc(Nc2ccn3ncc(-c4ccc(O)cc4)c3n2)cc(OC)c1OC` [Example 463, 4-[5-(3,4,5-Trimethoxy-phenylamino)-pyrazolo[1,5-a]pyrimidin-3-yl]-phenol], the IC50 lay in the range of 1000 to 10000 nM.

Regarding `COc1cncc(-c2cnn3ccc(NCCO)nc23)c1` [Example 123, 2-[3-(5-Methoxy-pyridin-3-yl)-pyrazolo[1,5-a]pyrimidin-5-ylamino]-ethanol], the 50% inhibitory concentration (IC50) was below 1000 nM.

As for `CC(C)c1ccc(Nc2ccn3ncc(-c4cccc(C(=O)NCCN(C)C)c4)c3n2)cc1` [Example 1, N-(2-dimethylamino-ethyl)-3-[5-(4-isopropyl-phenylamino)-pyrazolo[1,5-a]pyrimidin-3-yl]-benzamide], the half-maximal inhibitory concentration (IC50) was below 1000 nM.

Regarding `COc1ccc(Nc2ccn3ncc(-c4cnn(C)c4)c3n2)cn1` [Example 198, (6-Methoxy-pyridin-3-yl)-[3-(1-methyl-1H-pyrazol-4-yl)-pyrazolo[1,5-a]pyrimidin-5-yl]-amine], the 50% inhibitory concentration (IC50) was below 1000 nM.

For `COc1ccc(-c2cnn3ccc(NCc4cccnc4)nc23)cc1OC` [Example 292, [3-(3,4-Dimethoxy-phenyl)-pyrazolo[1,5-a]pyrimidin-5-yl]-pyridin-3-ylmethyl-amine], the concentration for half-maximal inhibition (IC50) was in the range of 1000 to 10000 nM.

With `c1ccc2sc(-c3cnn4ccc(NCc5ccncc5)nc34)cc2c1` [Example 64, (3-Benzo[b]thiophen-2-yl-pyrazolo[1,5-a]pyrimidin-5-yl)-pyridin-4-ylmethyl-amine], the IC50 is below 1000 nM.

Regarding `c1cc(CNc2ccn3ncc(-c4ccc5c(c4)OCO5)c3n2)ccn1` [Example 61, (3-Benzo[1,3]dioxol-5-yl-pyrazolo[1,5-a]pyrimidin-5-yl)-pyridin-4-ylmethyl-amine], the IC50 is below 1000 nM.

For `CS(=O)(=O)Nc1cccc(-c2cnn3ccc(Nc4ccc(N5CCOCC5)cc4)nc23)c1` [Example 447, N-{3-[5-(4-Morpholin-4-yl-phenylamino)-pyrazolo[1,5-a]pyrimidin-3-yl]-phenyl}-methanesulfonamide], the IC50 was below 1000 nM.

Regarding `COc1ccc(-c2cnn3ccc(Nc4ccccc4)nc23)cc1OC` [Example 478, [3-(3,4-Dimethoxy-phenyl)-pyrazolo[1,5-a]pyrimidin-5-yl]-phenyl-amine], the concentration for half-maximal inhibition (IC50) is 1000 to 10000 nM.

Consider `COc1ccc(-c2cnn3ccc(Nc4ccc(O)cc4)nc23)c(OC)c1` [Example 435, 4-[3-(2,4-Dimethoxy-phenyl)-pyrazolo[1,5-a]pyrimidin-5-ylamino]-phenol], for which the IC50 was in the range of 1000 to 10000 nM.

Regarding `CC(=O)c1cccc(-c2cnn3ccc(NCc4cccnc4)nc23)c1` [Example 227, 1-(3-{5-[(Pyridin-3-ylmethyl)-amino]-pyrazolo[1,5-a]pyrimidin-3-yl}-phenyl)-ethanone], the concentration for half-maximal inhibition (IC50) was in the range of 1000 to 10000 nM.

With `Oc1ccc(-c2cnn3ccc(Nc4ccc5[nH]ccc5c4)nc23)cc1` [Example 18, 4-[5-(1H-Indol-5-ylamino)-pyrazolo[1,5-a]pyrimidin-3-yl]-phenol], the concentration for half-maximal inhibition (IC50) was 1000 to 10000 nM.

With `COc1ccc(-c2cnn3ccc(Nc4ccc(Oc5ccccc5)cc4)nc23)cc1OC` [Example 33, [3-(3,4-Dimethoxy-phenyl)-pyrazolo[1,5-a]pyrimidin-5-yl]-(4-phenoxy-phenyl)-amine], the concentration for half-maximal inhibition (IC50) lay within 1000 to 10000 nM.

Regarding `COc1cccc(-c2cnn3ccc(Nc4cccc(Cl)c4)nc23)c1` [Example 444, (3-Chloro-phenyl)-[3-(3-methoxy-phenyl)-pyrazolo[1,5-a]pyrimidin-5-yl]-amine], the IC50 was 1000 to 10000 nM.

In the case of `COc1cccc(-c2cnn3ccc(NCc4ccncc4)nc23)c1` [Example 215, [3-(3-Methoxy-phenyl)-pyrazolo[1,5-a]pyrimidin-5-yl]-pyridin-4-ylmethyl-amine], the 50% inhibitory concentration (IC50) fell in the range of 1000 to 10000 nM.

For the compound `Cc1ccc(Nc2ccn3ncc(-c4cccc(CO)c4)c3n2)cc1NS(C)(=O)=O` [Example 431, N-{5-[3-(3-Hydroxymethyl-phenyl)-pyrazolo[1,5-a]pyrimidin-5-ylamino]-2-methyl-phenyl}-methanesulfonamide], the IC50 lay within 1000 to 10000 nM.

For `Cc1ccc(Nc2ccn3ncc(-c4cccc(N)c4)c3n2)cc1NS(C)(=O)=O` [Example 186], the IC50 lay within 1000 to 10000 nM.

Regarding `COc1ccc(-c2cnn3ccc(NCc4cccnc4)nc23)cn1` [Example 171, [3-(6-Methoxy-pyridin-3-yl)-pyrazolo[1,5-a]pyrimidin-5-yl]-pyridin-3-ylmethyl-amine], the IC50 was 1000 to 10000 nM.

Consider `c1cc(-c2cnn3ccc(Nc4ccc(N5CCOCC5)cc4)nc23)cs1` [Example 467, (4-Morpholin-4-yl-phenyl)-(3-thiophen-3-yl-pyrazolo[1,5-a]pyrimidin-5-yl)-amine], for which the 50% inhibitory concentration (IC50) fell in the range of 1000 to 10000 nM.

As to `Oc1ccc(Nc2ccn3ncc(-c4ccc5c(c4)OCO5)c3n2)cc1` [Example 45, 4-(3-Benzo[1,3]dioxol-5-yl-pyrazolo[1,5-a]pyrimidin-5-ylamino)-phenol], the 50% inhibitory concentration (IC50) was in the range of 1000 to 10000 nM.

Consider `COc1ccccc1-c1cnn2ccc(Nc3ccc(O)cc3)nc12` [Example 84, 4-[3-(2-Methoxy-phenyl)-pyrazolo[1,5-a]pyrimidin-5-ylamino]-phenol], for which the concentration for half-maximal inhibition (IC50) is 1000 to 10000 nM.

`COc1ccc(-c2cnn3ccc(NC4CCC(O)CC4)nc23)cc1` (stereo not drawn) [Example 155, 4-[3-(4-Methoxy-phenyl)-pyrazolo[1,5-a]pyrimidin-5-ylamino]-cyclohexanol]: the IC50 lay in the range of 1000 to 10000 nM.

Turning to `COc1cc(Nc2ccn3ncc(-c4cccc(C(=O)NCCO)c4)c3n2)cc(OC)c1OC` [Example 79, N-(2-Hydroxy-ethyl)-3-[5-(3,4,5-trimethoxy-phenylamino)-pyrazolo[1,5-a]pyrimidin-3-yl]-benzamide], the IC50 is 1000 to 10000 nM.

`c1ccc(Nc2ccn3ncc(-c4cccnc4)c3n2)cc1` [Example 278, Phenyl-(3-pyridin-3-yl-pyrazolo[1,5-a]pyrimidin-5-yl)-amine]: the IC50 is 1000 to 10000 nM.
